Results as given in patent US20060069132A1, “Azolecarboxamide herbicides” (priority 2004, published 2006).

Assays:
barnyardgrass [1] = experiment: Test A pre-/postemergence herbicide test; format: in vivo, Echinochloa crus-galli
Outline: (§1)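 Visual injury rating on a 0–100 scale (0 no effect, 100 complete control) versus untreated controls, about ten days after treatment in greenhouse. Pre: directed soil spray onto seeded sandy loam. Post: spray to runoff on plants 2–10 cm tall at one- to two-leaf stage.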

large crabgrass [2] = experiment: Test A pre-/postemergence herbicide test; format: in vivo, Digitaria sanguinalis
Outline: as §1

giant foxtail [3] = experiment: Test A pre-/postemergence herbicide test; format: in vivo, Setaria faberi
Outline: as §1

morningglory [4] = experiment: Test A pre-/postemergence herbicide test; format: in vivo, Ipomoea spp.
Outline: as §1

redroot pigweed = experiment: Test A pre-/postemergence herbicide test; format: in vivo, Amaranthus retroflexus
Outline: as §1

velvetleaf [5] = experiment: Test A pre-/postemergence herbicide test; format: in vivo, Abutilon theophrasti
Outline: as §1

barnyardgrass [6] = experiment: Test B pre-/postemergence herbicide test; format: in vivo, Echinochloa crus-galli; details: for Barnyardgrass plant response rating: postemergence
Outline: (§2)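 Herbicidal effect was judged by eye on a 0–100 scale after plants stood 13 to 15 days in the greenhouse following pre- or postemergence treatment with surfactant-containing formulations.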

Surinam grass = experiment: Test B pre-/postemergence herbicide test; format: in vivo, Urochloa decumbens; details: for Surinam Grass plant response rating: postemergence
Outline: (§3)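 Formulation: non-phytotoxic solvent mix with surfactant. Timing: preemergence on seed and postemergence on 2–18 cm plants, applied concurrently. Readout after 13–15 d greenhouse: visual 0–100 control rating against controls.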

cocklebur = experiment: Test B pre-/postemergence herbicide test; format: in vivo, Xanthium strumarium
Outline: as §2

corn = experiment: Test B pre-/postemergence herbicide test; format: in vivo, Zea mays; details: for Corn plant response rating: postemergence
Outline: as §3

large crabgrass [7] = experiment: Test B pre-/postemergence herbicide test; format: in vivo, Digitaria sanguinalis; details: for Crabgrass, Large plant response rating: postemergence
Outline: as §3

giant foxtail [8] = experiment: Test B pre-/postemergence herbicide test; format: in vivo, Setaria faberi; details: for Foxtail, Giant plant response rating: postemergence
Outline: as §3

lambsquarters = experiment: Test B pre-/postemergence herbicide test; format: in vivo, Chenopodium album; details: for Lambsquarters plant response rating: postemergence
Outline: as §3

morningglory [9] = experiment: Test B pre-/postemergence herbicide test; format: in vivo, Ipomoea coccinea; details: for Morningglory plant response rating: postemergence
Outline: as §2

pigweed = experiment: Test B pre-/postemergence herbicide test; format: in vivo, Amaranthus retroflexus; details: for Pigweed plant response rating: postemergence
Outline: as §3

velvetleaf [10] = experiment: Test B pre-/postemergence herbicide test; format: in vivo, Abutilon theophrasti; details: 100 is complete control
Outline: as §3

blackgrass = experiment: Test B postemergence herbicide test; format: in vivo, Alopecurus myosuroides; details: postemergence
Outline: (§4)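 Treated at 2-leaf (paddy) or 1–4-leaf, 2–18 cm (postemergence); greenhouse 13–15 d; visual score vs control, 0 none to 100 complete control; dash = not tested.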

wheat = experiment: Test B postemergence herbicide test; format: in vivo, Triticum aestivum; design: key to Wheat plant response rating: 0 = no effect, 100 = complete control; details: postemergence
Outline: (§5)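 Visual ratings, 0 (no effect) to 100 (complete control), made versus controls after 13–15 d greenhouse. Paddy plants treated at 2-leaf stage; postemergence plants at 1- to 4-leaf stage, 2–18 cm tall.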

wild oat = experiment: Test B postemergence herbicide test; format: in vivo, Avena fatua; details: postemergence
Outline: as §5

rice = experiment: Test B flooded paddy test; format: in vivo, Oryza sativa; details: 1000 g ai/ha, scale 0 to 100 (0 no effect, 100 complete control)
Outline: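 Scale 0–100: zero equals no visible effect, 100 complete control, judged by eye relative to controls. Timing: 13 to 15 days in greenhouse post-treatment. Growth stage at spraying: two leaves (paddy) or one to four leaves, 2–18 cm (postemergence).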

[11] = system: small flower umbrella sedge; experiment: Test B flooded paddy test; format: in vivo, Cyperus difformis; details: 1000 g ai/ha, scale 0 to 100 (0 no effect, 100 complete control)
Outline: as §4

ducksalad = experiment: Test B flooded paddy test; format: in vivo, Heteranthera limosa; details: 1000 g ai/ha, scale 0 to 100 (0 no effect, 100 complete control)
Outline: as §4

barnyardgrass [12] = experiment: Test B flooded paddy test; format: in vivo, Echinochloa crus-galli; details: 1000 g ai/ha, scale 0 to 100 (0 no effect, 100 complete control)
Outline: as §4

[13] = Postemergence, 500 g ai/ha, 0 to 100 scale, 0 no effect, 100 complete control
[14] = Postemergence, 2000 g ai/ha, 0 to 100 scale, 0 no effect, 100 complete control
[15] = Preemergence, 2000 g ai/ha, visual rating, 0 to 100 scale (0 no effect, 100 complete control)
[16] = preemergence, 500 g ai/ha, visual injury, 0 to 100 scale (0 no effect, 100 complete control)
[17] = 125 g ai/ha, 0 is no effect, 100 is complete control, preemergence
[18] = 125 g ai/ha, visual rating, scale 0 (no effect) to 100 (complete control)
[19] = 500 g ai/ha, visual rating, 0 = no effect, 100 = complete control, preemergence
[20] = 500 g ai/ha, scale 0 to 100, 0 is no effect, 100 is complete control

CCNC(=O)c1cccc(NC(=O)c2nn(C3CCCC3)nc2CC)c1 [Compound 356]
Barnyardgrass plant response rating (barnyardgrass [1]; [13]): 25 | Plant response rating, Barnyardgrass (barnyardgrass [1]; [14]): 40 | Barnyardgrass plant response rating (barnyardgrass [1]; [15]): 45 | Barnyardgrass plant response rating (barnyardgrass [1]; [16]): 5 | Crabgrass, Large plant response rating (large crabgrass [2]; [13]): 10 | Plant response rating, Crabgrass, Large (large crabgrass [2]; [14]): 15 | Crabgrass, Large plant response rating (large crabgrass [2]; [15]): 20 | Crabgrass, Large plant response rating (large crabgrass [2]; [16]): 10 | Foxtail, Giant plant response rating (giant foxtail [3]; [13]): 10 | Plant response rating, Foxtail, Giant (giant foxtail [3]; [14]): 10 | Foxtail, Giant plant response rating (giant foxtail [3]; [15]): 45 | Foxtail, Giant plant response rating (giant foxtail [3]; [16]): 20 | Morningglory plant response rating (morningglory [4]; [13]): 10 | Plant response rating, Morningglory (morningglory [4]; [14]): 20 | Morningglory plant response rating (morningglory [4]; [15]): 15 | Morningglory plant response rating (morningglory [4]; [16]): 5 | Pigweed plant response rating (redroot pigweed; [13]): 65 | Plant response rating, Pigweed (redroot pigweed; [14]): 70 | Pigweed plant response rating (redroot pigweed; [15]): 80 | Pigweed plant response rating (redroot pigweed; [16]): 25 | Velvetleaf plant response rating (velvetleaf [5]; [13]): 10 | Plant response rating, Velvetleaf (velvetleaf [5]; [14]): 10 | Velvetleaf plant response rating (velvetleaf [5]; [15]): 20 | Velvetleaf plant response rating (velvetleaf [5]; [16]): 0 | Plant response rating (0 to 100 scale), Barnyardgrass (barnyardgrass [6]; [17]): 60 | Barnyardgrass plant response rating (barnyardgrass [6]; [18]): 0 | Plant response rating, Barnyardgrass (barnyardgrass [6]; [19]): 80 | Barnyardgrass plant response rating (barnyardgrass [6]; [20]): 0 | Plant response rating (0 to 100 scale), Surinam Grass (Surinam grass; [17]): 10 | Surinam Grass plant response rating (Surinam grass; [18]): 10 | Plant response rating, Surinam Grass (Surinam grass; [19]): 60 | Surinam Grass plant response rating (Surinam grass; [20]): 20 | Plant response rating (0 to 100 scale), Cocklebur (cocklebur; [17]): 0 | Plant response rating, Cocklebur (cocklebur; [19]): 20 | Cocklebur plant response rating (cocklebur; postemergence, 500 g ai/ha, scale 0 to 100, 0 is no effect, 100 is complete control): 0 | Plant response rating (0 to 100 scale), Corn (corn; [17]): 10 | Corn plant response rating (corn; [18]): 0 | Plant response rating, Corn (corn; [19]): 50 | Corn plant response rating (corn; [20]): 0 | Plant response rating (0 to 100 scale), Crabgrass, Large (large crabgrass [7]; [17]): 40 | Crabgrass, Large plant response rating (large crabgrass [7]; [18]): 10 | Plant response rating, Crabgrass, Large (large crabgrass [7]; [19]): 90 | Crabgrass, Large plant response rating (large crabgrass [7]; [20]): 30 | Plant response rating (0 to 100 scale), Foxtail, Giant (giant foxtail [8]; [17]): 10 | Foxtail, Giant plant response rating (giant foxtail [8]; [18]): 30 | Plant response rating, Foxtail, Giant (giant foxtail [8]; [19]): 80 | Foxtail, Giant plant response rating (giant foxtail [8]; [20]): 30 | Plant response rating (0 to 100 scale), Lambsquarters (lambsquarters; [17]): 40 | Lambsquarters plant response rating (lambsquarters; [18]): 10 | Plant response rating, Lambsquarters (lambsquarters; [19]): 100 | Lambsquarters plant response rating (lambsquarters; [20]): 50 | Plant response rating (0 to 100 scale), Morningglory (morningglory [9]; [17]): 0 | Morningglory plant response rating (morningglory [9]; [18]): 0 | Plant response rating, Morningglory (morningglory [9]; [19]): 10 | Morningglory plant response rating (morningglory [9]; [20]): 10 | Plant response rating (0 to 100 scale), Pigweed (pigweed; [17]): 70 | Pigweed plant response rating (pigweed; [18]): 30 | Plant response rating, Pigweed (pigweed; [19]): 100 | Pigweed plant response rating (pigweed; [20]): 70 | Plant response rating (0 to 100 scale), Velvetleaf (velvetleaf [10]; 125 g ai/ha, 0 is no effect, preemergence): 0 | Velvetleaf plant response rating (velvetleaf [10]; postemergence, 500 g ai/ha, scale 0 to 100, 0 is no effect): 0 | Blackgrass plant response rating (blackgrass; [18]): 0 | Blackgrass plant response rating (blackgrass; [20]): 10 | Wheat plant response rating (wheat; [18]): 0 | Wheat plant response rating (wheat; [20]): 10 | Oat, Wild plant response rating (wild oat; [18]): 0 | Oat, Wild plant response rating (wild oat; [20]): 20 | Rice plant response rating (rice): 50 | Sedge, Umbrella plant response rating [11]: 70 | Ducksalad plant response rating (ducksalad): 60 | Barnyardgrass plant response rating (barnyardgrass [12]): 50
